From ChEMBL document CHEMBL5120875, “Discovery of diarylheptanoids that activate α7 nAchR-JAK2-STAT3 signaling in macrophages with anti-inflammatory activity in vitro and in vivo” (Bioorg Med Chem, 2022)
Calls of active or inactive are those of the source. The calls are words filed in the database; no cut-off is given here.

What was measured:
RAW264.7 [1] = experiment: Inhibition of LPS-induced NO production in mouse RAW264.7 cells at 5 uM preincubated with compound for 2 hrs followed by LPS stimulation for 24 hrs by Griess reagent based assay relative to control; assay type: functional; conditions: time 26 hrs
RAW264.7 [2] = experiment: Inhibition of LPS-induced NO production in mouse RAW264.7 cells preincubated with compound for 2 hrs followed by LPS stimulation for 24 hrs by Griess reagent based assay; assay type: functional, cell-based
RAW264.7 [3] = experiment: Cytotoxicity against mouse RAW264.7 cells assessed as effect on cell viability at 5 uM incubated for 24 hrs by alamar blue reagent based fluorescence assay; assay type: toxicity; conditions: raw264.7, 24 h
RAW264.7 [4] = experiment: Antiinflammatory activity in mouse RAW264.7 cells assessed as inhibition of LPS-induced IL-6 production preincubated for 2 hrs followed by LPS-stimulation for 24 hrs by ELISA; assay type: functional, cell-based; conditions: dose 0.2-5 µM, time 26.0 hrs, DDE = dose-dependent effect
RAW264.7 [5] = experiment: Antiinflammatory activity in mouse RAW264.7 cells assessed as inhibition of LPS-induced IL-1beta production preincubated for 2 hrs followed by LPS-stimulation for 24 hrs by ELISA; assay type: functional, cell-based; conditions: dose 0.2-5 µM, time 26.0 hrs, DDE = dose-dependent effect
RAW264.7 [6] = experiment: Antiinflammatory activity in mouse RAW264.7 cells assessed as decrease in LPS-induced IL-6 mRNA expression at 0.2 to 5 uM preincubated for 2 hrs followed by LPS-stimulation for 24 hrs by qRT-PCR analysis; assay type: functional, cell-based; conditions: dose 0.2-5 µM, time 26.0 hrs
RAW264.7 [7] = experiment: Antiinflammatory activity in mouse RAW264.7 cells assessed as decrease in LPS-induced IL-1beta mRNA expression at 0.2 to 5 uM preincubated for 2 hrs followed by LPS-stimulation for 24 hrs by qRT-PCR analysis; assay type: functional, cell-based; conditions: dose 0.2-5 µM, time 26.0 hrs
RAW264.7 [8] = experiment: Antiinflammatory activity in mouse RAW264.7 cells assessed as inhibition of LPS-induced iNOS mRNA expression preincubated for 2 hrs followed by LPS stimulation for 24 hrs by qRT-PCR analysis; assay type: functional, cell-based; conditions: dose 0.2-5 µM, time 26.0 hrs, DDE = dose-dependent effect
Peritoneal macrophage = experiment: Antiinflammatory activity in mouse peritoneal macrophages assessed as reduction in LPS-induced NO production at 0.2 to 5 uM preincubated for 2 hrs followed by LPS-stimulation for 22 hrs by Griess reagent based assay; assay type: functional, cell-based; conditions: dose 0.2-5 µM, time 24.0 hrs
THP-1 [9] = experiment: Antiinflammatory activity in human THP-1 monocytes assessed as reduction in LPS/Interferon-gamma NO production at 0.2 to 5 uM pretreated with PMA for 24 hrs followed by compound addition 2 hrs and stimulated with LPS/Interferon-gamma for 22 hrs by Griess reagent based assay; assay type: functional, cell-based; conditions: dose 0.2-5 µM
RAW264.7 [10] = experiment: Activation of NF-kappaB signalling pathway in mouse RAW264.7 cells assessed as suppression of LPS-induced IkappaBalpha phosphorylation pretreated with compound for 2 hrs followed by LPS-stimulation for 30 mins by Western blot analysis; assay type: cell-based; conditions: filed as activator, dose 0.2-5 µM, time 2.5 hrs
RAW264.7 [11] = experiment: Activation of NF-kappaB signalling pathway in mouse RAW264.7 cells assessed as suppression of LPS-induced IkappaBalpha degradation pretreated with compound for 2 hrs followed by LPS-stimulation for 30 mins by Western blot analysis; assay type: cell-based; conditions: filed as activator, dose 0.2-5 µM, time 2.5 hrs, DDE = dose-dependent effect
RAW264.7 [12] = experiment: Activation of NF-kappaB signalling pathway in mouse RAW264.7 cells assessed as decrease in LPS-induced AKT phosphorylation at 0.2 to 5 uM pretreated with compound for 2 hrs followed by LPS-stimulation for 30 mins by Western blot analysis; assay type: cell-based; conditions: filed as activator, dose 0.2-5 µM, time 2.5 hrs
[13] = molecular target: T1, Signal transducer and activator of transcription 1 (Mus musculus) (UniProt P42225); experiment: Inhibition of LPS-induced STAT1 phosphorylation in mouse RAW264.7 cells pretreated with compound for 2 hrs followed by LPS-stimulation and measured after 30 mins by immunoblot analysis; assay type: cell-based; conditions: dose 0.2-5 µM, time 2.5 hrs, DDE = dose-dependent effect
T1 sequence (whole entry): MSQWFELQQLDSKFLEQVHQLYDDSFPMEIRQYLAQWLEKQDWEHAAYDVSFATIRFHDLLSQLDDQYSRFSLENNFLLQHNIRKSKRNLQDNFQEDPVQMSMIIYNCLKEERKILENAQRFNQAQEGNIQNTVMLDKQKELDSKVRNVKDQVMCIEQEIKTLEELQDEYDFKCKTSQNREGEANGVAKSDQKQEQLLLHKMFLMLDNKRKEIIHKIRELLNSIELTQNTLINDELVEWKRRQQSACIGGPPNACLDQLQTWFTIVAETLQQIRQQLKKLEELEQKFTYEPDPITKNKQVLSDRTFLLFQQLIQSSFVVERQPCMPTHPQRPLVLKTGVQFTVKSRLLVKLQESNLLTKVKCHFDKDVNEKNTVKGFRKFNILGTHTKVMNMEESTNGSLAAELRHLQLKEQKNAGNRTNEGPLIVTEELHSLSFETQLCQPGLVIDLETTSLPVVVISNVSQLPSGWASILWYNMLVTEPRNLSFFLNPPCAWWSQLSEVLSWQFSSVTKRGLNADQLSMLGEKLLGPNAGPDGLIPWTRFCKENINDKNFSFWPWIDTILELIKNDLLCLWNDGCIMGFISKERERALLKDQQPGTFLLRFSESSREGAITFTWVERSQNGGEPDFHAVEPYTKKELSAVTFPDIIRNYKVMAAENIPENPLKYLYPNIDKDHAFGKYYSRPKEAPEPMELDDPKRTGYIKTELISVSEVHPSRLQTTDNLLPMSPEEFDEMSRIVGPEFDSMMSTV

RAW264.7 [14] = experiment: Antiinflammatory activity in LPS-induced mouse RAW264.7 cells assessed as enhancement of JAK2 phosphorylation pretreated with compound for 2 hrs followed by LPS-stimulation and measured after 30 mins by Western blot analysis; assay type: functional, cell-based; conditions: dose 0.2-5 µM, time 2.5 hrs, DDE = dose-dependent effect
RAW264.7 [15] = experiment: Antiinflammatory activity in LPS-induced mouse RAW264.7 cells assessed as enhancement of STAT3 phosphorylation pretreated with compound for 2 hrs followed by LPS-stimulation and measured after 30 mins by Western blot analysis; assay type: functional, cell-based; conditions: dose 0.2-5 µM, time 2.5 hrs, DDE = dose-dependent effect
THP-1 [16] = experiment: Antiinflammatory activity in LPS/IFNgamma-stimulated human THP-1 monocytes assessed as inhibition of NO production pretreated with PMA for 24 hrs and incubated alpha-bungarotoxin for 1 hr followed by compound addition for 2 hrs and further stimulated with LPS/INF-gamma for 22 hrs by Griess reagent based assay; assay type: functional, cell-based
[17] = molecular target: Neuronal acetylcholine receptor subunit alpha-7 (Mus musculus) (UniProt P49582); experiment: Binding affinity to alpha7 nAChR in mouse RAW264.7 cells assessed as increase in thermal stability at 200 uM incubated for 30 min by CETSA; assay type: cell-based; conditions: filed as agonist
RAW264.7 [18] = experiment: Antiinflammatory activity in mouse RAW264.7 cells assessed as inhibition of LPS-induced iNOS protein expression preincubated for 2 hrs followed by LPS stimulation for 24 hrs by qRT-PCR analysis; assay type: functional, cell-based; conditions: time 26.0 hrs, DDE = dose-dependent effect
RAW264.7 [19] = experiment: (§1) Antiinflammatory activity in LPS-induced mouse RAW264.7 cells assessed as enhancement of JAK2 phosphorylation at 0.2 to 5 uM pretreated with alpha7 nAChR antagonist alpha-bungarotoxin for 1 hr followed by compound treatment for 2 hrs and further stimulated with LPS for 30 mins by Western blot analysis; assay type: functional, cell-based; conditions: dose 0.2-5 µM, time 2.5 hrs
RAW264.7 [20] = experiment: as §1, with “STAT3” for “JAK2”; assay type: functional, cell-based; conditions: dose 0.2-5 µM, time 2.5 hrs
Mus musculus [21] = experiment: (§2) Antiinflammatory activity in LPS-induced ICR sepsis mouse model assessed as attenuation of LPS-induced inflammatory cell infiltration at 5 mg/kg, ip pretreated with compound for 5 days followed by LPS stimulation and measured 2 hrs post last dose by hematoxylin and eosin staining based microscopic analysis; assay type: functional, organism-based; conditions: time 5.0 day
Mus musculus [22] = experiment: Antiinflammatory activity in LPS-induced ICR sepsis mouse model assessed as attenuation of LPS-induced lung damage at 5 mg/kg, ip pretreated with compound for 5 days followed by LPS stimulation and measured 2 hrs post last dose by hematoxylin and eosin staining based microscopic analysis; assay type: functional, organism-based; conditions: time 5.0 day
RAW264.7 [23] = experiment: as §1, with “LPS-stimulated” for “LPS-induced”, “inhibition” for “enhancement”, “IkappaBalpha degradation” for “JAK2 phosphorylation”, “antagonist,” for “antagonist”; assay type: functional, cell-based; conditions: dose 0.2-5 µM, time 2.5 hrs
RAW264.7 [24] = experiment: Antiinflammatory activity in LPS-stimulated mouse RAW264.7 cells assessed as inhibition of NO production at 0.2 to 5 uM pretreated with alpha7 nAChR antagonist alpha-bungarotoxin for 1 hr followed by compound treatment for 2 hrs and further stimulated with LPS for […] reagent based assay; assay type: functional, cell-based; conditions: dose 0.2-5 µM
Mus musculus [25] = experiment: Antiinflammatory activity in LPS-induced ICR sepsis mouse model assessed as suppression of LPS-induced serum interleukin-1beta level at 5 to 20 mg/kg, ip pretreated with compound for 5 days followed by LPS stimulation and measured 2 hrs post last dose by ELISA analysis; assay type: functional, organism-based; conditions: dose 5-20 mg/kg, time 5.0 day
Mus musculus [26] = experiment: Antiinflammatory activity in LPS-induced ICR sepsis mouse model assessed as high survival rate at 5 to 20 mg/kg, ip pretreated with compound for 5 days followed by LPS stimulation and measured 2 hrs post last dose; assay type: functional, organism-based; conditions: dose 5-20 mg/kg, time 5.0 day
Mus musculus [27] = experiment: Antiinflammatory activity in LPS-induced ICR sepsis mouse model assessed as suppression of LPS-induced serum interleukin-6 level at 5 to 20 mg/kg, ip pretreated with compound for 5 days followed by LPS stimulation and measured 2 hrs post last dose by ELISA analysis; assay type: functional, organism-based; conditions: dose 5-20 mg/kg, time 5.0 day
Mus musculus [28] = experiment: as §2, with “at 5 to 20 mg/kg, ip” for “at 5 mg/kg, ip”; assay type: functional, organism-based; conditions: dose 5-20 mg/kg, time 5.0 day
Mus musculus [29] = experiment: Antiinflammatory activity in LPS-induced ICR sepsis mouse model assessed as attenuation of LPS-induced lung damage at 5 to 20 mg/kg, ip pretreated with compound for 5 days followed by LPS stimulation and measured 2 hrs post last dose by hematoxylin and eosin staining based microscopic analysis; assay type: functional, organism-based; conditions: dose 5-20 mg/kg, time 5.0 day
RAW264.7 [30] = experiment: Antiinflammatory activity in mouse RAW264.7 cells assessed as inhibition of LPS-induced IL-6 production at 10 uM preincubated for 2 hrs followed by LPS-stimulation for 24 hrs by ELISA; assay type: functional, cell-based; conditions: time 26.0 hrs
RAW264.7 [31] = experiment: Antiinflammatory activity in mouse RAW264.7 cells assessed as inhibition of LPS-induced IL-1beta production at 10 uM preincubated for 2 hrs followed by LPS-stimulation for 24 hrs by ELISA; assay type: functional, cell-based; conditions: time 26.0 hrs

Sequence of Neuronal acetylcholine receptor subunit alpha-7 (Mus musculus) (P49582 whole entry): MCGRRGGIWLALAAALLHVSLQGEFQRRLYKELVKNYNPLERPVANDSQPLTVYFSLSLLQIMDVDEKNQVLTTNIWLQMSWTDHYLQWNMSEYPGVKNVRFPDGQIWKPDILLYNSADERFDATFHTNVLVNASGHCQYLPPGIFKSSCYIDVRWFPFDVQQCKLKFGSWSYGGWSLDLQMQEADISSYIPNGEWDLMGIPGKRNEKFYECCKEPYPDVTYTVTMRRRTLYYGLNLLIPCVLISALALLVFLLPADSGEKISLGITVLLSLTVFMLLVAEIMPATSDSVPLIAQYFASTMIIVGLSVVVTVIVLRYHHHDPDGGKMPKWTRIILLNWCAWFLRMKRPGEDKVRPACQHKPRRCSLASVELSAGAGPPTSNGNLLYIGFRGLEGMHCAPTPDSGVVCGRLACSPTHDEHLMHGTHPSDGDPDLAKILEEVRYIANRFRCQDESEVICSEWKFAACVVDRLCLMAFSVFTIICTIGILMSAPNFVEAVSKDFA

Compound	inhibition at 5 µM (RAW264.7 [1]) [%]	IC50 (RAW264.7 [2]) [nM]	Activity (RAW264.7 [3])	Activity (RAW264.7 [4])	Activity (RAW264.7 [5])	Activity (RAW264.7 [6])	Activity (RAW264.7 [7])	Activity (RAW264.7 [8])	Activity (RAW264.7 [10]; DDE = dose-dependent effect)	Activity (RAW264.7 [11])	Activity (RAW264.7 [12])	inhibition [13]	Activity (RAW264.7 [14])	Activity (RAW264.7 [15])	Activity (RAW264.7 [18])	Activity (RAW264.7 [19])	Activity (RAW264.7 [20])	also measured
COc1ccc(/C=C/C=C/C(=O)/C=C/c2ccc(OC)c(O)c2)c(OC)c1	106	550	Non-Toxic	Dde	Dde	Active	Active	Dde	Dde	Dde	Active	Dde	Dde	Dde	Dde	Active	Active	Activity (Peritoneal macrophage): Active; Activity (THP-1 [9]): Active; Activity (THP-1 [16]): Active; Activity [17]: Active
C[C@@H]1C[C@H]2[C@@H]3CCC4=CC(=O)C=C[C@]4(C)[C@@]3(F)[C@@H](O)C[C@]2(C)[C@@]1(O)C(=O)CO																		Activity (Mus musculus [21]): Active; Activity (Mus musculus [22]): Active
CC(=O)Oc1ccc(CC[C@H](CCCCc2ccccc2)OC(C)=O)cc1OC(C)=O	93.2	320	Non-Toxic	Dde	Dde	Active	Active	Dde	Dde	Dde	Active	Dde	Dde	Dde	Dde	Active	Active	Activity (RAW264.7 [23]): Active; Activity (RAW264.7 [24]): Active; Activity (Mus musculus [25]): Active; Activity (Mus musculus [26]): Active; Activity (Mus musculus [27]): Active; Activity (Mus musculus [28]): Active; Activity (Mus musculus [29]): Active
Cc1ccc(S(=O)(=O)/C=C/C#N)cc1																		Activity (RAW264.7 [10]): Active; Activity (RAW264.7 [30]): Active; Activity (RAW264.7 [31]): Active
